In experiment [1] the test system is MEIS1 mRNA expression. In words: MEIS1 mRNA expression assay (Quantigene Singleplex) in MOLM14 cells. Format: cell-based, human. Particulars: 48 hours incubation. The essentials:
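Read-out: MEIS1 transcript counts, background-subtracted and divided by RPL28, expressed as fold change over DMSO-treated cells, then dose-response modelled for IC50. MOLM14 cells (3,750/well) received graded compound for 48 h before lysis and QuantiGene hybridization at 55 °C.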

Experiment [2] has as its target T1, menin/MLL (terbium chelate-labeled menin, FITC-MBM1 peptide) (Homo sapiens, UniProt O00255, T541A).
T1 construct: Menin (a.a 1-610-6xhis tag, 2.3 mg/mL in 20 mM Hepes)
T1 sequence (O00255 with tags, fused parts or gaps T541A): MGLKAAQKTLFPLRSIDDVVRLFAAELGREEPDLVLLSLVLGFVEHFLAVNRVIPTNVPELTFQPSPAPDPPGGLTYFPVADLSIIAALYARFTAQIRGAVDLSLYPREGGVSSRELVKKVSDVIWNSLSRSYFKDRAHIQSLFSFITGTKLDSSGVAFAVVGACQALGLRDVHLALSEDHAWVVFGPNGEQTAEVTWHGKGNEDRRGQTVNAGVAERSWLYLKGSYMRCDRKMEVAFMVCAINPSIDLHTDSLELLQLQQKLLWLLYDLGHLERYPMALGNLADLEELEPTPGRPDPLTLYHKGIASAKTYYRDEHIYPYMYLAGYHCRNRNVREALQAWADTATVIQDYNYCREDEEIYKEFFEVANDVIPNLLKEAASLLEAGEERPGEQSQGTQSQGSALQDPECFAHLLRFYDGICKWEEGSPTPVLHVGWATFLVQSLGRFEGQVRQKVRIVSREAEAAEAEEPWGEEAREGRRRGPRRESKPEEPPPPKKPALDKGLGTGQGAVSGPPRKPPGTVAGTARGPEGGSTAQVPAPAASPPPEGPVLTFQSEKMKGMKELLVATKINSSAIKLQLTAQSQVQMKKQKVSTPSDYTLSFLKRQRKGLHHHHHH
Kind of experiment: Menin/MLL homogenous time-resolved fluorescence (HTRF) assay. Format: binding. The note with it: 30 min incubation. The essentials: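 Competition binding read by time-resolved FRET (FITC 520 nm over terbium 490 nm) after compound meets labeled menin 1-610-His […] for 30 min, then FITC-MBM1 (75 nM) for 15 min, ambient temperature, 0.5% DMSO. Eleven-point four-fold dilutions, usually starting at 10 μM, fitted to four-parameter curves for IC50.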

For the molecule `Cc1cncc2c1c(C[C@@H]1CCN(CC3CCOCC3)C1)cn2-c1ccc(F)cc1C(=O)N1CCC[C@H]1CO` [Compound 360], the IC50 in experiment [1] (Homo sapiens, MOLM-14, 48 h) came to 107 nM; in experiment [2], 0.127 nM.

Regarding `CC(=O)N1CCN(CCC[C@H](C(C)C)N2CC[C@@H](Cc3cn(-c4ccc(F)cc4C(=O)N(C)C(C)C)c4cncc(C)c34)C2)CC1` (single isomer, unassigned) [Compound 8a], the IC50 in experiment [1] (Homo sapiens, MOLM-14, 48 h) came to 13 nM; in experiment [2], 0.024 nM.

Consider `CC(=O)N1CCN([C@H]2C[C@@H]([C@H](C(C)C)N3CC(Cc4cn(-c5ccc(F)cc5C(=O)N(C)C(C)C)c5cncc(C)c45)C3)C2)CC1` (single isomer, unassigned) [Compound 32b], for which the IC50 in experiment [1] (Homo sapiens, MOLM-14, 48 h) was over 1000 nM; in experiment [2] it was 0.472 nM.

Take `Cc1cncc2c1c(CC1CN(CC3CCOCC3)C1)cn2-c1ccc(F)cc1C(=O)N1CCC(O)C1C` (centres unmarked) [Compound 271]: the IC50 in experiment [1] (Homo sapiens, MOLM-14, 48 h) stood at 288 nM; in experiment [2], 0.368 nM.

Regarding `CCc1cncc2c1c(C[C@@H]1CCN(CC3CCN(C(C)=O)CC3)C1)cn2-c1ccc(F)cc1C(=O)N(C)C(C)C` [Compound 259], the IC50 in experiment [1] (Homo sapiens, MOLM-14, 48 h) was 138 nM; in experiment [2], 0.031 nM.

Turning to `CC(=O)N1CCC[C@H](CN2CC(Cc3cn(-c4ccc(F)cc4C(=O)N(C)C(C)C)c4cncc(C)c34)C2)C1` (single isomer, unassigned) [Compound 90a], the 50% inhibitory concentration (IC50) was about 127 nM in experiment [1] (Homo sapiens, MOLM-14, 48 h) and 0.391 nM in experiment [2].

For the molecule `CCN(C(=O)c1cc(F)ccc1-n1cc(C[C@H]2CCN(CC3CCN(C(C)=O)CC3)C2)c2c(C)cncc21)C(C)C` [Compound 256], the IC50 in experiment [1] (Homo sapiens, MOLM-14, 48 h) came out at 20 nM; in experiment [2] it was 0.073 nM.

Turning to `Cc1cncc2c1c(CC1CN(CC3CCN(S(C)(=O)=O)CC3)C1)cn2-c1ccc(F)cc1C(=O)N(C)C(C)C` [Compound 64], the IC50 in experiment [1] (Homo sapiens, MOLM-14, 48 h) is about 39 nM; in experiment [2] it was 0.284 nM.

As to `CC(=O)N1CCC(CN2CC[C@@H](Cc3cn(-c4ccc(F)cc4C(=O)N4CCCCC4C)c4cncc(C)c34)C2)CC1` (some centres unmarked) [Compound 317], the IC50 was 65 nM in experiment [1] (Homo sapiens, MOLM-14, 48 h) and 0.291 nM in experiment [2].

Consider `CC(=O)N1C[C@@H]2CN([C@H]3C[C@@H](C(C)N4CC[C@@H](Cc5cn(-c6ccc(F)cc6C(=O)N(C)C(C)C)c6cncc(C)c56)C4)C3)C[C@H]2C1` (mixture of isomers) [Compound 28], for which the IC50 in experiment [1] (Homo sapiens, MOLM-14, 48 h) was 107 nM; in experiment [2], 0.055 nM.

Consider `Cc1cncc2c1c(C[C@H]1CCN([C@H](C)C3CCOCC3)C1)cn2-c1ccc(F)cc1[S@@](=N)(=O)C(C)C` (single isomer, unassigned) [Compound 183a], for which the half-inhibitory concentration (IC50) in experiment [1] (Homo sapiens, MOLM-14, 48 h) is 307 nM; in experiment [2], 0.37 nM.

On to `Cc1cncc2c1c(C[C@@H]1CCN(C(CCCN3CCC(S(C)(=O)=O)CC3)C(C)C)C1)cn2-c1ccc(F)cc1C(=O)N(C)C(C)C` (mixture of isomers) [Compound 10], for which the IC50 in experiment [1] (Homo sapiens, MOLM-14, 48 h) was 17 nM; in experiment [2], 0.021 nM.

On to `Cc1cncc2c1c(C[C@H]1CCN(CC3CCN(C(=O)C4CC4)CC3)C1)cn2-c1ccc(F)cc1C(=O)N(C)C(C)C` (single isomer, unassigned) [Compound 135], for which the 50% inhibitory concentration (IC50) in experiment [1] (Homo sapiens, MOLM-14, 48 h) is 7 nM; in experiment [2], about 0.056 nM.

`Cc1cncc2c1c(C[C@@H]1CCN(CC3CCN(C(=O)C(C)(C)O)CC3)C1)cn2-c1ccc(F)cc1C(=O)N1[C@H](C)CC[C@H]1C` [Compound 343]: the IC50 in experiment [1] (Homo sapiens, MOLM-14, 48 h) was 13 nM; in experiment [2], 0.045 nM.

`Cc1cncc2c1c(CC1CNC(CC3CCOCC3)C1)cn2-c1ccc(F)cc1C(=O)N(C)C(C)C` (single isomer, unassigned) [Compound 134b]: the IC50 in experiment [1] was over 1000 nM; in experiment [2] it was 0.988 nM.

For `CC(=O)N1C[C@@H]2[C@H](CN3CC[C@@H](Cc4cn(-c5ccc(F)cc5C(=O)N(C)C(C)C)c5cncc(C)c45)C3)[C@@H]2C1` [Compound 220], the IC50 in experiment [1] (Homo sapiens, MOLM-14, 48 h) is over 1000 nM; in experiment [2], 0.932 nM.

On to `Cc1cncc2c1c(CC1CN(CC3CCCC(=O)N3)C1)cn2-c1ccc(F)cc1C(=O)N(C)C(C)C` (centres unmarked) [Compound 95], for which the IC50 was about 914 nM in experiment [1] (Homo sapiens, MOLM-14, 48 h) and 0.601 nM in experiment [2].

For `Cc1cncc2c1c(C[C@@H]1CCN([C@@H]3CCNC(=O)CC3)C1)cn2-c1ccc(F)cc1C(=O)N(C)C(C)C` (single isomer, unassigned) [Compound 139b], the IC50 in experiment [1] (Homo sapiens, MOLM-14, 48 h) stood at 716 nM; in experiment [2] it was 0.087 nM.

In the case of `Cc1cncc2c1c(C[C@@H]1CCN(CC3CCN(C(=O)C4(O)CC4)CC3)C1)cn2-c1ccc(F)cc1C(=O)N(C)C(C)C` [Compound 249], the IC50 came to 7 nM in experiment [1] (Homo sapiens, MOLM-14, 48 h) and 0.023 nM in experiment [2].

In the case of `Cc1cncc2c1c(CC1CN(CC3CCOCC3)C1)cn2-c1ccc(F)cc1C(=O)N(C)C1CCOC1` (centres unmarked) [Compound 269], the concentration for half-maximal inhibition (IC50) in experiment [1] (Homo sapiens, MOLM-14, 48 h) is 18 nM; in experiment [2] it was 1.7 nM.

Turning to `Cc1ccc(CN2CC(Cc3cn(-c4ccc(F)cc4C(=O)N(C)C(C)C)c4cncc(C)c34)C2)nn1` [Compound 284], the IC50 in experiment [1] (Homo sapiens, MOLM-14, 48 h) was about 2360 nM; in experiment [2] it was 4.19 nM.

For `CCc1cncc2c1c(C[C@H]1CCN(CC3CCN(C(C)=O)CC3)C1)cn2-c1ccc(F)cc1C(=O)N(C)C(C)C` [Compound 260], the IC50 was about 27.6 nM in experiment [1] (Homo sapiens, MOLM-14, 48 h) and 0.042 nM in experiment [2].

In the case of `Cc1cncc2c1c(CC1CN(CC3(O)CCOCC3)C1)cn2-c1ccc(F)cc1C(=O)N(C)C(C)C` [Compound 307], the IC50 in experiment [1] (Homo sapiens, MOLM-14, 48 h) came out at 48 nM; in experiment [2], 0.044 nM.

Consider `Cc1cncc2c1c(CC1CN(CC3CCOCC3)C1)cn2-c1ccc(F)cc1C(=O)N1CCC12CCC2` [Compound 261], for which the IC50 in experiment [1] (Homo sapiens, MOLM-14, 48 h) is 217 nM; in experiment [2] it was 0.213 nM.

For the molecule `CC(=O)N1CCC(CN2C[C@@H](Cc3cn(-c4ccc(F)cc4C(=O)N(C)C(C)C)c4cncc(C)c34)C[C@@H]2C)CC1` [Compound 133], the IC50 in experiment [1] (Homo sapiens, MOLM-14, 48 h) was found to be 42 nM; in experiment [2] it was 0.051 nM.

As to `CC(=O)N1C[C@@H]2[C@@H](CN3CC[C@@H](Cc4cn(-c5ccc(F)cc5C(=O)N(C)C(C)C)c5cncc(C)c45)C3)[C@@H]2C1` [Compound 187], the concentration for half-maximal inhibition (IC50) in experiment [1] (Homo sapiens, MOLM-14, 48 h) came to 1940 nM; in experiment [2], 1.02 nM.

Consider `CC(=O)N1CC2CC1CC2N1CC[C@@H](Cc2cn(-c3ccc(F)cc3C(=O)N(C)C(C)C)c3cncc(C)c23)C1` (some centres unmarked) [Compound 223], for which the 50% inhibitory concentration (IC50) in experiment [1] (Homo sapiens, MOLM-14, 48 h) came out at 279 nM; in experiment [2] it was 0.239 nM.

For `Cc1cncc2c1c(CC1CN(C3CC4(CC(NC(=O)OC(C)(C)C)C4)C3)C1)cn2-c1ccc(F)cc1C(=O)N(C)C(C)C` (centres unmarked) [Compound 91], the IC50 is 94 nM in experiment [1] (Homo sapiens, MOLM-14, 48 h) and 0.155 nM in experiment [2].

`Cc1cncc2c1c(C[C@@H]1CCN(CC3CCN(C(=O)NC4CC4)CC3)C1)cn2-c1ccc(F)cc1C(=O)N(C)C(C)C` [Compound 152]: the IC50 in experiment [1] (Homo sapiens, MOLM-14, 48 h) stood at 197 nM; in experiment [2], 0.053 nM.

Consider `CC(=O)N1CCC(CN2CC[C@@H](Cc3cn(-c4ccc(F)cc4C(=O)N4CCC45CCC5)c4cncc(C)c34)C2)CC1` [Compound 310], for which the half-maximal inhibitory concentration (IC50) in experiment [1] (Homo sapiens, MOLM-14, 48 h) worked out at 351 nM; in experiment [2] it was 0.119 nM.

For `CC(=O)N1CCC([C@H](C)N2CC[C@@H](Cc3cn(-c4ccc(F)cc4[S@@](=N)(=O)C(C)C)c4cncc(C)c34)C2)CC1` (single isomer, unassigned) [Compound 231b], the IC50 was over 1000 nM in experiment [1] (Homo sapiens, MOLM-14, 48 h) and 6.94 nM in experiment [2].

As to `COCC[C@@H](C1CCOCC1)N1CC[C@@H](Cc2cn(-c3ccc(F)cc3C(=O)N(C)C(C)C)c3cncc(C)c23)C1` (single isomer, unassigned) [Compound 252b], the IC50 in experiment [1] (Homo sapiens, MOLM-14, 48 h) amounted to 315 nM; in experiment [2], 0.25 nM.

With `Cc1cncc2c1c(C[C@@H]1CCN([C@H](C)C3CCOCC3)C1)cn2-c1ccc(F)cc1[S@@](=N)(=O)C(C)C` (single isomer, unassigned) [Compound 182a], the IC50 in experiment [1] (Homo sapiens, MOLM-14, 48 h) was found to be 287 nM; in experiment [2], 0.462 nM.

As to `Cc1cncc2c1c(C[C@@H]1CCN(CC3CCN(C(=O)C(C)(C)O)CC3)C1)cn2-c1ccc(F)cc1C(=O)N1CCCC12CC2` [Compound 340], the IC50 in experiment [1] (Homo sapiens, MOLM-14, 48 h) was over 1000 nM; in experiment [2], 0.034 nM.

`Cc1cncc2c1c(C[C@@H]1CCN([C@H]3CCNC(=O)CC3)C1)cn2-c1ccc(F)cc1C(=O)N(C)C(C)C` (single isomer, unassigned) [Compound 139a]: the IC50 in experiment [1] (Homo sapiens, MOLM-14, 48 h) was about 810 nM; in experiment [2], 0.122 nM.

For the molecule `Cc1cncc2c1c(CC1CN(CC(=O)N3CCCCC3)C1)cn2-c1ccc(F)cc1C(=O)N(C)C(C)C` [Compound 98], the IC50 in experiment [1] (Homo sapiens, MOLM-14, 48 h) was about 535 nM; in experiment [2] it was 0.747 nM.

In the case of `CC(=O)N1CCC(CN2CC(Cc3cn(-c4ccc(F)cc4C(=O)N(C)C(C)C)c4cncc(C)c34)C2)C1` (centres unmarked) [Compound 94], the IC50 in experiment [1] (Homo sapiens, MOLM-14, 48 h) turned out to be 309 nM; in experiment [2], 0.079 nM.
